Test results as given in US12404289B2 (Gilead Sciences, Inc., priority 2020, dated 2025).

Tested on: Respiratory syncytial virus (RSV) strain A2
Assay: RSV antiviral assay (HEp-2, 96 well)
Type: cell-based
Conditions: human respiratory syncytial virus, HEp-2, 96 h, read-out: EC50 RSV HEP2 96, HEp-2 cells, RSV A2, MOI=4, 4 days, 96 well; Table 3

Row | SMILES | EC50
1 | CC(=O)O[C@H]1[C@@H](OC(C)=O)[C@](C#N)(c2ccc3c(N)ncnn23)O[C@@H]1COP(=O)(N[C@@H](C)C(=O)OC1CCC1)Oc1ccc(C2CC2)cc1 (single isomer, unassigned) [Example 53a] | 38.1 nM
2 | CC(C)C(=O)O[C@H]1[C@@H](OC(=O)C(C)C)[C@](C#N)(c2ccc3c(N)ncnn23)O[C@@H]1COP(=O)(N[C@@H](C)C(=O)OC1CCCCCCC1)Oc1ccc(C(C)(C)C)cc1 (single isomer, unassigned) [Example 77a] | 194 nM
3 | C[C@H](NP(=O)(OC[C@H]1O[C@@](C#N)(c2ccc3c(N)ncnn23)[C@H](O)[C@@H]1O)Oc1ccc(C(C)(C)C)cc1)C(=O)O[C@H]1CC[C@H](C(F)(F)F)CC1 (single isomer, unassigned) [Example 84a] | 185 nM
4 | CC(C)C(=O)O[C@H]1[C@@H](OC(=O)C(C)C)[C@](C#N)(c2ccc3c(N)ncnn23)O[C@@H]1COP(=O)(N[C@@H](C)C(=O)O[C@H]1CC[C@H](C(F)(F)F)CC1)Oc1ccc(C(C)(C)C)cc1 (single isomer, unassigned) [Example 85a] | 62.7 nM
5 | CCC(CC)COC(=O)[C@H](C)NP(=O)(OC[C@H]1O[C@@](C#N)(c2ccc3c(N)ncnn23)[C@H](O)[C@@H]1O)Oc1ccc2ccccc2c1 (single isomer, unassigned) [Intermediate S3-a] | 28.2 nM
6 | CCC(=O)O[C@@H]1[C@H](OC(=O)C(N)C(C)C)[C@@H](COP(=O)(N[C@@H](C)C(=O)OCC(CC)CC)Oc2ccccc2)O[C@@]1(C#N)c1ccc2c(N)ncnn12 (stereo in doubt) [Example 88, [(2R,3R,4R,5R)-5-(4-aminopyrrolo[2,1-f][1,2,4]triazin-7-yl)-5-cyano-2-[[[[(1S)-2-(2-ethylbutoxy)-1-methyl-2-oxo-ethyl]amino]-phenoxy-phosphoryl]oxymethyl]-4-propanoyloxy-tetrahydrofuran-3-yl] (2R)-2-amino-3-methyl-butanoate] | 21.4 nM
7 | C[C@H](NP(=O)(OC[C@H]1O[C@@](C#N)(c2ccc3c(N)ncnn23)[C@H](O)[C@@H]1O)Oc1ccc(C2CC2)cc1)C(=O)OC1CCC1 (stereo partly drawn) [Example 51a, cyclobutyl (2S)-2-[[[(2R,3S,4R,5R)-5-(4-aminopyrrolo[2,1-f][1,2,4]triazin-7-yl)-5-cyano-3,4-dihydroxy-tetrahydrofuran-2-yl]methoxy-(cyclopropylphenoxy)phosphoryl]amino]propanoate] | 66.1 nM
8 | CC(C)C(=O)O[C@H]1[C@@H](OC(=O)C(C)C)[C@](C#N)(c2ccc3c(N)ncnn23)O[C@@H]1COP(=O)(N[C@@H](C)C(=O)OCCC(C)(C)C)Oc1ccc(C(C)(C)C)cc1 (stereo partly drawn) [Example 62, [(2R,3R,4R,5R)-5-(4-aminopyrrolo[2,1-f][1,2,4]triazin-7-yl)-2-[[(4-tert-butylphenoxy)-[[(1S)-2-(3,3-dimethylbutoxy)-1-methyl-2-oxo-ethyl]amino]phosphoryl]oxymethyl]-5-cyano-4-(2-methylpropanoyloxy)tetrahydrofuran-3-yl] 2-methylpropanoate] | 70.6 nM
9 | CCOC(=O)[C@H](C)NP(=O)(OC[C@H]1O[C@@](C#N)(c2ccc3c(N)ncnn23)[C@H](O)[C@@H]1O)Oc1ccc(C(C)C)cc1 (stereo partly drawn) [Example 63a] | 104 nM
10 | CCOC(=O)[C@H](C)NP(=O)(OC[C@H]1O[C@@](C#N)(c2ccc3c(N)ncnn23)[C@H](OC(=O)C(C)C)[C@@H]1OC(=O)C(C)C)Oc1ccc(C(C)C)cc1 (stereo partly drawn) [Example 64, [(2R,3R,4R,5R)-5-(4-aminopyrrolo[2,1-f][1,2,4]triazin-7-yl)-5-cyano-2-[[[[(1S)-2-ethoxy-1-methyl-2-oxo-ethyl]amino]-(4-isopropylphenoxy)phosphoryl]-oxymethyl]-4-(2-methylpropanoyloxy)tetrahydrofuran-3-yl] 2-methylpropanoate] | 57.9 nM
11 | CCC(CC)COC(=O)[C@H](C)NP(=O)(OC[C@H]1O[C@@](C#N)(c2ccc3c(N)ncnn23)[C@H](O)[C@@H]1O)Oc1cccc(C(C)(C)C)c1 (stereo partly drawn) [Example 68a] | 60.8 nM
12 | CCC(CC)COC(=O)[C@H](C)NP(=O)(OC[C@H]1O[C@@](C#N)(c2ccc3c(N)ncnn23)[C@H](OC(=O)C(C)C)[C@@H]1OC(=O)C(C)C)Oc1ccc2ccccc2c1 (stereo partly drawn) [Example 69a, [(2R,3R,4R,5R)-5-(4-aminopyrrolo[2,1-f][1,2,4]triazin-7-yl)-5-cyano-2-[[[[(1S)-2-(2-ethylbutoxy)-1-methyl-2-oxo-ethyl]amino]-(2-naphthyloxy)phosphoryl]oxymethyl]-4-(2-methylpropanoyloxy)tetrahydrofuran-3-yl] 2-methylpropanoate] | 22.1 nM
13 | CCC(CC)COC(=O)[C@H](C)NP(=O)(OC[C@H]1O[C@@](C#N)(c2ccc3c(N)ncnn23)[C@H](O)[C@@H]1O)Oc1ccc(C[C@H](NC(=O)OCc2ccccc2)C(=O)OCCC(C)C)cc1 (stereo partly drawn) [Example 71, isopentyl (2S)-3-[4-[[(2R,3S,4R,5R)-5-(4-aminopyrrolo[2,1-f][1,2,4]triazin-7-yl)-5-cyano-3,4-dihydroxy-tetrahydrofuran-2-yl]methoxy-[[(1S)-2-(2-ethylbutoxy)-1-methyl-2-oxo-ethyl]amino]phosphoryl]oxyphenyl]-2-(benzyloxycarbonylamino)propanoate] | 1790 nM
14 | CCC(CC)COC(=O)[C@H](C)NP(=O)(OC[C@H]1O[C@@](C#N)(c2ccc3c(N)ncnn23)[C@H](OC(=O)C(C)C)[C@@H]1OC(=O)C(C)C)Oc1ccc(C[C@H](NC(=O)OCc2ccccc2)C(=O)OCCC(C)C)cc1 (stereo partly drawn) [Example 72, (2R,3R,4R,5R)-2-(4-aminopyrrolo[2,1-f][1,2,4]triazin-7-yl)-5-((((4-((S)-2-(((benzyloxy)carbonyl)amino)-3-(isopentyloxy)-3-oxopropyl)phenoxy)(((S)-1-(2-ethylbutoxy)-1-oxopropan-2-yl)amino)phosphoryl)oxy)methyl)-2-cyanotetrahydrofuran-3,4-diyl bis(2-methylpropanoate)] | 556 nM
15 | C[C@H](NP(=O)(OC[C@H]1O[C@@](C#N)(c2ccc3c(N)ncnn23)[C@H](O)[C@@H]1O)Oc1ccc(C(C)(C)C)cc1)C(=O)OC1CCCCCCC1 (stereo partly drawn) [Example 73, cyclooctyl (2S)-2-[[[(2R,3S,4R,5R)-5-(4-aminopyrrolo[2,1-f][1,2,4]triazin-7-yl)-5-cyano-3,4-dihydroxy-tetrahydrofuran-2-yl]methoxy-(4-tert-butylphenoxy)phosphoryl]amino]propanoate] | 552 nM
16 | CCC(C)(C)CCOC(=O)[C@H](C)NP(=O)(OC[C@H]1O[C@@](C#N)(c2ccc3c(N)ncnn23)[C@H](OC(=O)C(C)C)[C@@H]1OC(=O)C(C)C)Oc1ccccc1 (stereo partly drawn) [Example 74, [(2R,3R,4R,5R)-5-(4-aminopyrrolo[2,1-f][1,2,4]triazin-7-yl)-5-cyano-2-[[[[(1S)-2-(3,3-dimethylpentoxy)-1-methyl-2-oxo-ethyl]amino]-phenoxy-phosphoryl]oxymethyl]-4-(2-methylpropanoyloxy)tetrahydrofuran-3-yl] 2-methylpropanoate] | 131 nM

Same assay, conditions: read-out: EC50 RSV HEP2 96; HEp-2 cells, RSV A2, MOI=4, 4 days, 96 well; Table 3

Row | SMILES | EC50
17 | CC(C)C(=O)O[C@H]1[C@@H](OC(=O)C(C)C)[C@](C#N)(c2ccc3c(N)ncnn23)O[C@@H]1COP(=O)(N[C@@H](C)C(=O)OCCC(C)(C)C)Oc1ccccc1 (single isomer, unassigned) [Example 56a] | 35.5 nM
18 | CC(C)C(=O)O[C@H]1[C@@H](OC(=O)C(C)C)[C@](C#N)(c2ccc3c(N)ncnn23)O[C@@H]1COP(=O)(N[C@@H](C)C(=O)OCCC(C)(C)C)Oc1ccccc1 (single isomer, unassigned) [Example 56b] | 74.7 nM
19 | CC(C)C(=O)O[C@H]1[C@@H](OC(=O)C(C)C)[C@](C#N)(c2ccc3c(N)ncnn23)O[C@@H]1COP(=O)(N[C@@H](C)C(=O)OC1CCCCCCC1)Oc1ccc(C(C)(C)C)cc1 (single isomer, unassigned) [Example 77b] | 198 nM
20 | C[C@H](NP(=O)(OC[C@H]1O[C@@](C#N)(c2ccc3c(N)ncnn23)[C@H](O)[C@@H]1O)Oc1ccc(C(C)(C)C)cc1)C(=O)O[C@H]1CC[C@H](C(F)(F)F)CC1 (single isomer, unassigned) [Example 84b] | 186 nM
21 | CC(C)C(=O)O[C@H]1[C@@H](OC(=O)C(C)C)[C@](C#N)(c2ccc3c(N)ncnn23)O[C@@H]1COP(=O)(N[C@@H](C)C(=O)O[C@H]1CC[C@H](C(F)(F)F)CC1)Oc1ccc(C(C)(C)C)cc1 (single isomer, unassigned) [Example 85b] | 80.5 nM
22 | C[C@H](NP(=O)(OC[C@H]1O[C@@](C#N)(c2ccc3c(N)ncnn23)[C@H](O)[C@@H]1O)Oc1cccc2ccccc12)C(=O)OC1CCC1 (single isomer, unassigned) [Intermediate P7a-1] | 224 nM
23 | C[C@H](NP(=O)(OC[C@H]1O[C@@](C#N)(c2ccc3c(N)ncnn23)[C@H](O)[C@@H]1O)Oc1ccc(C2CC2)cc1)C(=O)OC1CCC1 (stereo partly drawn) [Example 51b, cyclobutyl (2S)-2-[[[(2R,3S,4R,5R)-5-(4-aminopyrrolo[2,1-f][1,2,4]triazin-7-yl)-5-cyano-3,4-dihydroxy-tetrahydrofuran-2-yl]methoxy-(cyclopropylphenoxy)phosphoryl]amino]propanoate] | 86.8 nM
24 | CC(C)C(=O)O[C@H]1[C@@H](OC(=O)C(C)C)[C@](C#N)(c2ccc3c(N)ncnn23)O[C@@H]1COP(=O)(N[C@@H](C)C(=O)OC1CCC1)Oc1ccc(C2CC2)cc1 (stereo partly drawn) [Example 52b] | 25.4 nM
25 | CCOC(=O)[C@H](C)NP(=O)(OC[C@H]1O[C@@](C#N)(c2ccc3c(N)ncnn23)[C@H](O)[C@@H]1O)Oc1ccc(C(C)C)cc1 (stereo partly drawn) [Example 63b] | 98.6 nM
26 | CCC(CC)COC(=O)[C@H](C)NP(=O)(OC[C@H]1O[C@@](C#N)(c2ccc3c(N)ncnn23)[C@H](O)[C@@H]1O)Oc1cccc(C(C)(C)C)c1 (stereo partly drawn) [Example 68b] | 34.4 nM
27 | CCC(CC)COC(=O)[C@H](C)NP(=O)(OC[C@H]1O[C@@](C#N)(c2ccc3c(N)ncnn23)[C@H](OC(=O)C(C)C)[C@@H]1OC(=O)C(C)C)Oc1ccc2ccccc2c1 (stereo partly drawn) [Example 69b, [(2R,3R,4R,5R)-5-(4-aminopyrrolo[2,1-f][1,2,4]triazin-7-yl)-5-cyano-2-[[[[(1S)-2-(2-ethylbutoxy)-1-methyl-2-oxo-ethyl]amino]-(2-naphthyloxy)phosphoryl]oxymethyl]-4-(2-methylpropanoyloxy)tetrahydrofuran-3-yl] 2-methylpropanoate] | 36.9 nM
